Tested on: Ba/F3-FLT3-ITD cells
Assay: Proliferation of cells cultured in the presence and absence of WEHI (IL-3)
Assay type: cell-based, murine
Conditions: WEHI as source of IL-3

## CNC(C)C(=O)NC(C(=O)N1CCC2CCN(CCc3ccccc3)CC21)C1CCCCC1 (stereo not shown) [LBW242]
  Inhibition of cellular proliferation in the presence and absence of IL-3: inhibits proliferation of Ba/F3-FLT3-ITD cells in both the absence, as well as the presence of IL-3

Reference: patent publication US8492429B2, “Combination of IAP inhibitors and FLT3 inhibitors” (Novartis AG, priority 2006, dated 2013)
